Source: BindingDB's records for doi:10.1021/jm5003759 (University of Copenhagen, 2014)

Target: T1, 5-hydroxytryptamine receptor 2C (Homo sapiens, UniProt P28335)
T1 sequence (P28335 whole entry): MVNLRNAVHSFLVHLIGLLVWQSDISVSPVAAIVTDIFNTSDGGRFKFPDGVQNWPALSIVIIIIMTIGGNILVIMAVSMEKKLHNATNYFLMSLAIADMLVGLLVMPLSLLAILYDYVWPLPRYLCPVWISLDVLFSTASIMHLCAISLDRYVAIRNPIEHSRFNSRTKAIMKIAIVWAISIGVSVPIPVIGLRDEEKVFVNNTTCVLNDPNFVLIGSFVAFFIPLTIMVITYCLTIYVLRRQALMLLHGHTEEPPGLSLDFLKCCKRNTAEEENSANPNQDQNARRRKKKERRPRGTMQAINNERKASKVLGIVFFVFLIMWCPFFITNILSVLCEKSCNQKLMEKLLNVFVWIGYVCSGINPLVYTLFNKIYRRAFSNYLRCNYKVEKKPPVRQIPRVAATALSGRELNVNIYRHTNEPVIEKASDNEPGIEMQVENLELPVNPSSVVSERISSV
Assay: Displacement of [3H]5-HT from human recombinant 5-HT2C receptor expressed in mouse 3T3 cells

Q: How did the Ki turn out when `CNc1cc(NS(=O)(=O)c2ccc(N)cc2)cc(NC)n1` [Ro-63-0563] was run?
A: 2.04 µM
